Patent US20240156756A1 (Steel Therapeutics, Inc., priority 2021, published 2024)
Structures can show the parent of a compound that is named as a salt. Where two headings read alike, the source gives them in different places.

Columns and labels:
[1] = for stability of control sample (active only, no excipient): HPLC impurities
[2] = test system: chronic anal fissures; settings: cream containing 0.5% nifedipine for four weeks; cited from earlier work

Row | stability of control sample (active only, no excipient) ([1]; T0, both temperatures (RT & 40° C.)) | degradation in any excipient combinations ([1]; T0, both temperatures (RT & 40° C.), major = >5%) | degradation in DEC combinations ([1]; T4 weeks, Benzyl Alcohol and Oleyl alcohol combinations) | major degradation in DEC combinations ([1]; T4 weeks, RT & 40° C., combinations of Transcutol, DMI, and PEG 400) [%] | stability of control sample (active only, no excipient) ([1]; T4 weeks, both temperatures (RT & 40° C.)) | Compound | patients experienced healing [2] [%]
1 | stable | No major degradation | Slight degradation | > 5 | stable | CCN(CC)CC(=O)Nc1c(C)cccc1C [Lidocaine HCl, 2-(diethylamino)-N-(2,6-dimethylphenyl)acetamide;hydrochloride] | 
2 |  |  |  |  |  | COC(=O)C1=C(C)NC(C)=C(C(=O)OC)C1c1ccccc1[N+](=O)[O-] [Nifedipine, dimethyl 2,6-dimethyl-4-(2-nitrophenyl)-1,4-dihydropyridine-3,5-dicarboxylate] | 70
